Test system: 317291-083-R-J1-PDC complex spheroids, viability
Assay: Anticancer human tumor 317291-083-R-J1-PDC patient-derived soft tissue sarcoma cell line growth inhibition [GQUAD]
Details: for IC50: curve of first compound; for viability, T/C: stronger effect = lower value; active means viability on the fitted dose curve at most 10% of control; inactive means the rest
How it was run: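 Viability of tumor cells grown as complex spheroids with endothelial and stromal cells, exposed to drug combinations. Top concentration at or near clinical Cmax (else 10 microM), diluted in half-log increments.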

[1] = second compound 0.0316 µM, first compound 0.0316 µM
[2] = second compound 0.0316 µM, first compound 0.1 µM
[3] = second compound 0.0316 µM, first compound 0.316 µM
[4] = second compound 0.0316 µM, first compound 1 µM
[5] = second compound 0.0316 µM, first compound 3.16 µM
[6] = second compound 0.0316 µM, first compound 10 µM
[7] = second compound 0.1 µM, first compound 0.0316 µM
[8] = second compound 0.1 µM, first compound 0.1 µM
[9] = second compound 0.1 µM, first compound 0.316 µM
[10] = second compound 0.1 µM, first compound 1 µM
[11] = second compound 0.1 µM, first compound 3.16 µM
[12] = second compound 0.1 µM, first compound 10 µM
[13] = second compound 0.316 µM, first compound 0.0316 µM
[14] = second compound 0.316 µM, first compound 0.1 µM
[15] = second compound 0.316 µM, first compound 0.316 µM
[16] = second compound 0.316 µM, first compound 1 µM
[17] = second compound 0.316 µM, first compound 3.16 µM
[18] = second compound 0.316 µM, first compound 10 µM
[19] = second compound 1 µM, first compound 0.0316 µM
[20] = second compound 1 µM, first compound 0.1 µM
[21] = second compound 1 µM, first compound 0.316 µM
[22] = second compound 1 µM, first compound 1 µM
[23] = second compound 1 µM, first compound 3.16 µM
[24] = second compound 1 µM, first compound 10 µM
[25] = second compound 3.16 µM, first compound 0.0316 µM
[26] = second compound 3.16 µM, first compound 0.1 µM
[27] = second compound 3.16 µM, first compound 0.316 µM
[28] = second compound 3.16 µM, first compound 1 µM
[29] = second compound 3.16 µM, first compound 3.16 µM
[30] = second compound 3.16 µM, first compound 10 µM
[31] = second compound 10 µM, first compound 0.0316 µM
[32] = second compound 10 µM, first compound 0.1 µM
[33] = second compound 10 µM, first compound 0.316 µM
[34] = second compound 10 µM, first compound 1 µM
[35] = second compound 10 µM, first compound 3.16 µM
[36] = second compound 10 µM, first compound 10 µM
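Further: spheroids exposed to compounds for one week before readout.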
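Wherever viability, T/C is given: percent viability relative to DMSO vehicle wells taken as 100%.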

CC1COCCN1c1cc(C2(O)CC3CCC(C2)O3)c2cnn(-c3ccn[nH]3)c2n1 (stereo not drawn) + Cc1[nH]c2ccc(F)cc2c1-c1nc2c3cccnc3c3ncccc3c2[nH]1
54.7 nM: IC50 (second compound 0.1 µM)
inactive: viability, T/C [1] 84.1% | viability, T/C [2] 34.8% | viability, T/C [3] 16% | viability, T/C [4] 22.8% | viability, T/C [5] 13.2% | viability, T/C [6] 3.15% | viability, T/C [7] 68.5% | viability, T/C [8] 29.5% | viability, T/C [9] 13.9% | viability, T/C [13] 55.7% | viability, T/C [14] 27.9% | viability, T/C [15] 14.8% | viability, T/C [16] 20.1% | viability, T/C [17] 12.1% | viability, T/C [19] 66.4% | viability, T/C [20] 26.4% | viability, T/C [21] 18.6% | viability, T/C [22] 10.8% | viability, T/C [25] 69.7% | viability, T/C [26] 20.4% | viability, T/C [27] 10.7% | viability, T/C [31] 52.3% | viability, T/C [32] 18.9% | viability, T/C [33] 14%
active: viability, T/C [10] 12.8% | viability, T/C [11] 10.4% | viability, T/C [12] 3.93% | viability, T/C [18] 3.04% | viability, T/C [23] 11.3% | viability, T/C [24] 2.71% | viability, T/C [28] 14.3% | viability, T/C [29] 7.98% | viability, T/C [30] 2.88% | viability, T/C [34] 13.8% | viability, T/C [35] 10.7% | viability, T/C [36] 3.52%
39.2 nM: IC50 (second compound 0.316 µM)
33.7 nM: IC50 (second compound 10 µM)
71.4 nM: IC50 (second compound 0.0316 µM)
51.7 nM: IC50 (second compound 1 µM)
50.2 nM: IC50 (second compound 3.16 µM)

CCc1c2c(nc3ccc(O)cc13)-c1cc3c(c(=O)n1C2)COC(=O)[C@]3(O)CC + Cc1[nH]c2ccc(F)cc2c1-c1nc2c3cccnc3c3ncccc3c2[nH]1
inactive: viability, T/C (second compound 0.0316 µM, first compound 0.000999 µM) 71.4% | viability, T/C (second compound 0.0316 µM, first compound 0.00316 µM) 23.9% | viability, T/C (second compound 0.0316 µM, first compound 0.00999 µM) 12.8% | viability, T/C (second compound 0.1 µM, first compound 0.000999 µM) 70.2% | viability, T/C (second compound 0.1 µM, first compound 0.00316 µM) 19.9% | viability, T/C (second compound 0.316 µM, first compound 0.000999 µM) 66.7% | viability, T/C (second compound 0.316 µM, first compound 0.00316 µM) 18.4% | viability, T/C (second compound 0.316 µM, first compound 0.00999 µM) 16.5% | viability, T/C (second compound 1 µM, first compound 0.000999 µM) 75.8% | viability, T/C (second compound 1 µM, first compound 0.00316 µM) 22.1% | viability, T/C (second compound 1 µM, first compound 0.00999 µM) 14.6% | viability, T/C (second compound 3.16 µM, first compound 0.000999 µM) 65.4% | viability, T/C (second compound 3.16 µM, first compound 0.00316 µM) 18.1% | viability, T/C (second compound 10 µM, first compound 0.000999 µM) 37.7% | viability, T/C (second compound 10 µM, first compound 0.00316 µM) 14.2%
1.76 nM: IC50 (second compound 1 µM)
1.69 nM: IC50 (second compound 0.0316 µM)
1.59 nM: IC50 (second compound 0.1 µM)
< 0.999 nM: IC50 (second compound 10 µM)
active: viability, T/C [1] 8.37% | viability, T/C (second compound 0.0316 µM, first compound 0.0999 µM) 6.91% | viability, T/C [3] 4.31% | viability, T/C (second compound 0.1 µM, first compound 0.00999 µM) 8.9% | viability, T/C [7] 10% | viability, T/C (second compound 0.1 µM, first compound 0.0999 µM) 7.96% | viability, T/C [9] 3.98% | viability, T/C [13] 8.55% | viability, T/C (second compound 0.316 µM, first compound 0.0999 µM) 6.58% | viability, T/C [15] 4.87% | viability, T/C [19] 9.41% | viability, T/C (second compound 1 µM, first compound 0.0999 µM) 6.65% | viability, T/C [21] 5.39% | viability, T/C (second compound 3.16 µM, first compound 0.00999 µM) 8.2% | viability, T/C [25] 8.72% | viability, T/C (second compound 3.16 µM, first compound 0.0999 µM) 6.44% | viability, T/C [27] 4.32% | viability, T/C (second compound 10 µM, first compound 0.00999 µM) 9.41% | viability, T/C [31] 9.06% | viability, T/C (second compound 10 µM, first compound 0.0999 µM) 5.65% | viability, T/C [33] 7.19%
1.46 nM: IC50 (second compound 3.16 µM)
1.51 nM: IC50 (second compound 0.316 µM)

COc1ccc([C@@H](O)c2cc(-c3ncnc4cc(N5CCOCC5)ccc34)c(F)cc2Cl)nn1 + Cc1[nH]c2ccc(F)cc2c1-c1nc2c3cccnc3c3ncccc3c2[nH]1
5890 nM: IC50 (second compound 1 µM)
> 10000 nM: IC50 (second compound 0.316 µM)
3910 nM: IC50 (second compound 3.16 µM)
2250 nM: IC50 (second compound 10 µM)
7300 nM: IC50 (second compound 0.1 µM)
8490 nM: IC50 (second compound 0.0316 µM)
inactive: viability, T/C [1] 103% | viability, T/C [2] 91.6% | viability, T/C [3] 105% | viability, T/C [4] 79.6% | viability, T/C [5] 72.2% | viability, T/C [6] 46.3% | viability, T/C [7] 102% | viability, T/C [8] 101% | viability, T/C [9] 86.8% | viability, T/C [10] 73.7% | viability, T/C [11] 69.9% | viability, T/C [12] 42.6% | viability, T/C [13] 99.5% | viability, T/C [14] 95.4% | viability, T/C [15] 96.6% | viability, T/C [16] 92.5% | viability, T/C [17] 86.2% | viability, T/C [18] 53% | viability, T/C [19] 90.6% | viability, T/C [20] 110% | viability, T/C [21] 88.6% | viability, T/C [22] 78.5% | viability, T/C [23] 64.3% | viability, T/C [24] 39.1% | viability, T/C [25] 72.4% | viability, T/C [26] 81.8% | viability, T/C [27] 76.4% | viability, T/C [28] 91.7% | viability, T/C [29] 55.6% | viability, T/C [30] 25.2% | viability, T/C [31] 68% | viability, T/C [32] 66.5% | viability, T/C [33] 79% | viability, T/C [34] 54.8% | viability, T/C [35] 47% | viability, T/C [36] 16%

O=C(c1cc(Cc2n[nH]c(=O)c3ccccc23)ccc1F)N1CCN(C(=O)C2CC2)CC1 + Cc1[nH]c2ccc(F)cc2c1-c1nc2c3cccnc3c3ncccc3c2[nH]1
8800 nM: IC50 (second compound 3.16 µM)
inactive: viability, T/C [1] 97.2% | viability, T/C [2] 92.2% | viability, T/C [3] 91.8% | viability, T/C [4] 91.6% | viability, T/C [5] 80.6% | viability, T/C [6] 69.5% | viability, T/C [7] 108% | viability, T/C [8] 116% | viability, T/C [9] 93.4% | viability, T/C [10] 94.8% | viability, T/C [11] 92.8% | viability, T/C [12] 65.3% | viability, T/C [13] 101% | viability, T/C [14] 111% | viability, T/C [15] 101% | viability, T/C [16] 103% | viability, T/C [17] 92.8% | viability, T/C [18] 52.1% | viability, T/C [19] 109% | viability, T/C [20] 112% | viability, T/C [21] 91.5% | viability, T/C [22] 93.8% | viability, T/C [23] 90.3% | viability, T/C [24] 60.2% | viability, T/C [25] 81.6% | viability, T/C [26] 82.9% | viability, T/C [27] 72.8% | viability, T/C [28] 75.2% | viability, T/C [29] 69.6% | viability, T/C [30] 47.2% | viability, T/C [31] 105% | viability, T/C [32] 84.4% | viability, T/C [33] 96.3% | viability, T/C [34] 81.8% | viability, T/C [35] 98% | viability, T/C [36] 58.6%
> 10000 nM: IC50 (second compound 0.0316 µM) | IC50 (second compound 0.1 µM) | IC50 (second compound 0.316 µM) | IC50 (second compound 1 µM) | IC50 (second compound 10 µM)
